Among the data in ChEMBL document CHEMBL4706515, “Discovery of new [1,2,4] Triazolo[1,5-a]Pyrimidine derivatives that Kill gastric cancer cells via the mitochondria pathway” (Eur J Med Chem, 2020) are inhibition, GI50 and Activity values, retold here.

The source made the active and inactive calls. The rule behind the calls is not given here.

Series [1] concerns MGC-803. Put plainly: Antiproliferative activity against human MGC-803 cells assessed as inhibition of cell growth at 10 uM measured after 72 hrs by SRB assay relative to control. It is filed as functional. (In general: The SRB assay estimates cell density from bound dye.)
Series [2] has as its system MGC-803. Put plainly: Antiproliferative activity against human MGC-803 cells assessed as inhibition of cell growth at measured after 72 hrs by SRB assay. It is filed as functional.
In another series the test system is HGC-27. The series is described as follows: Antiproliferative activity against human HGC-27 cells assessed as inhibition of cell growth at measured after 72 hrs by SRB assay. It is filed as functional.
The test system of another series is SGC-7901. The series is described as follows: Antiproliferative activity against human SGC-7901 cells assessed as inhibition of cell growth at measured after 72 hrs by SRB assay. It is filed as functional.
A further series has as its system BGC-823. Put plainly: Antiproliferative activity against human BGC-823 cells assessed as inhibition of cell growth at measured after 72 hrs by SRB assay. It is filed as functional.
For the next series, the system named is MKN-45. The series is described as follows: Antiproliferative activity against human MKN-45 cells assessed as inhibition of cell growth at measured after 72 hrs by SRB assay. It is filed as functional.
The next series has as its system GES1. Put plainly: Cytotoxicity against human GES1 cells assessed as inhibition of cell growth at measured after 72 hrs by SRB assay. The class given is cell-based. Particulars: ges1, 72 h.
A further series concerns A549. The series is described as follows: Antiproliferative activity against human A549 cells assessed as inhibition of cell growth at measured after 72 hrs by SRB assay. It is filed as functional.
The test system of the next series is EJ. The series is described as follows: Antiproliferative activity against human EJ cells assessed as inhibition of cell growth at measured after 72 hrs by SRB assay. The class given is functional.

One may read the inhibition as the change of the read-out against control, counted positive when it falls. For the compound `Cc1cc(Nc2cc(-c3ccccc3)[nH]n2)n2nc(SCc3nc4ccccc4[nH]3)nc2n1`, in the series on MGC-803 [1], the inhibition at 10 µM came to 78.4%.

As for `Cc1cc(Nc2ccc(C(=O)/C=C/c3cccc(Br)n3)cc2)n2nc(SCc3ccc(Br)cc3)nc2n1`, the inhibition at 10 µM with MGC-803 [1] worked out at 96.3%.

Regarding `Cc1cc(Nc2ccc(C(=O)/C=C/c3cccc(Br)n3)cc2)n2nc(SCc3ccc(Cl)cc3)nc2n1`, the inhibition at 10 µM in the series on MGC-803 [1] amounted to 90.2%.

`C#CCSc1nc2nc(C)cc(Nc3ccc(C(=O)/C=C/c4cccc(Br)n4)cc3)n2n1`: the inhibition at 10 µM with MGC-803 [1] was determined as 94.4%.

One may read the GI50 as the concentration giving 50% growth inhibition. On to `Cc1cc(Nc2ccc(C(=O)/C=C/c3ccc(Br)cn3)cc2)n2nc(SCc3nc4ccccc4[nH]3)nc2n1`, for which the inhibition at 10 µM in the series on MGC-803 [1] was 96.8%. For the same compound, the 50% growth inhibitory concentration (GI50) with MGC-803 [2], in the series on HGC-27, in the series on SGC-7901, with BGC-823 and in the series with MKN-45 was 640 nM throughout. Moreover, the Activity entry in the series on GES1 was “Non-Toxic”. The GI50 result in the series on A549 and with EJ was “inactive” in each case.

As to `Cc1cc(Nc2ccc(C(=O)/C=C/c3cccc(Br)n3)cc2)n2nc(SCc3ccccc3[N+](=O)[O-])nc2n1`, the inhibition at 10 µM in the series with MGC-803 [1] was determined as 92.3%.

For the compound `Cc1cc(Nc2ccc(C(=O)/C=C/c3ccccc3)cc2)n2nc(SCc3nc4ccccc4[nH]3)nc2n1`, the inhibition at 10 µM in the series with MGC-803 [1] came out at 94.5%.

As to `Cc1cc(Nc2ccc(C(=O)/C=C/c3cccc(Br)n3)cc2)n2ncnc2n1`, in the series on MGC-803 [1], the inhibition at 10 µM is 58.4%.

Take `CCc1cc(Nc2ccc(C(=O)/C=C/c3cccc(Br)n3)cc2)n2nc(SCc3ccccc3)nc2n1`: in the series with MGC-803 [1], the inhibition at 10 µM was 63%.

On to `Cc1cc(Nc2ccc(C(=O)/C=C/c3cccc(Br)n3)cc2)n2nc(SCc3ccccc3)nc2n1`, for which the inhibition at 10 µM in the series with MGC-803 [1] was 90.2%.

In the case of `O=C(/C=C/c1cccc(Br)n1)c1ccc(Nc2cc(-c3ccccc3)nc3nc(SCc4ccccc4)nn23)cc1`, the inhibition at 10 µM in the series on MGC-803 [1] worked out at 38.3%.

Take `Cc1cc(Nc2ccc(C(=O)/C=C/c3cccc(Br)n3)cc2)n2nc(SCc3ccc(C(F)(F)F)cc3)nc2n1`: the inhibition at 10 µM in the series on MGC-803 [1] amounted to 96.6%.

On to `Cc1cc(Nc2ccc(C(=O)/C=C/c3cccc(Br)n3)cc2)n2nc(SCc3ccc(F)cc3)nc2n1`, for which the inhibition at 10 µM in the series on MGC-803 [1] was 93.3%.

For the compound `Cc1cc(Nc2ccccc2)n2nc(SCc3nc4ccccc4[nH]3)nc2n1`, the inhibition at 10 µM with MGC-803 [1] was 22.4%.

`O=C(/C=C/c1cccc(Br)n1)c1ccc(Nc2c3c(nc4ncnn24)CCC3)cc1`: the inhibition at 10 µM in the series on MGC-803 [1] turned out to be 49.9%.

Turning to `C#CCSc1nc2nc(-c3ccccc3)cc(Nc3ccc(C(=O)/C=C/c4cccc(Br)n4)cc3)n2n1`, the inhibition at 10 µM in the series on MGC-803 [1] worked out at 56.3%.

`O=c1[nH]cc(F)c(=O)[nH]1` [FLUOROURACIL]: the GI50 result in the series on MGC-803 [2], in the series with HGC-27, in the series on SGC-7901, in the series on BGC-823, in the series with MKN-45 and in the series on A549 was “Active” each time. Also, the 50% growth inhibitory concentration (GI50) result in the series on EJ was “Active”. Further, the Activity result in the series on GES1 was “Toxic”.

Regarding `Cc1cc(Nc2ccc(C(=O)/C=C/c3cccc(Br)n3)cc2)n2nc(SCCCc3ccccc3)nc2n1`, the inhibition at 10 µM in the series on MGC-803 [1] turned out to be 76.7%.

For `Cc1cc(Nc2ccc(N3CCN(C)CC3)cc2)n2nc(SCc3nc4ccccc4[nH]3)nc2n1`, in the series on MGC-803 [1], the inhibition at 10 µM was 78.1%.

As for `Cc1cc(Nc2ccc(C(=O)/C=C/c3cccc(Br)n3)cc2)n2nc(SCc3ccc([N+](=O)[O-])cc3)nc2n1`, the inhibition at 10 µM with MGC-803 [1] turned out to be 91.6%.

Regarding `Cc1nc2nc(SCc3ccc(Cl)cc3)nn2c(Nc2ccc(C(=O)/C=C/c3cccc(Br)n3)cc2)c1C`, the inhibition at 10 µM in the series on MGC-803 [1] amounted to 72.5%.
